Values after ≈ are worked out from the molar mass of the structure shown.

This test has as its system M. catarrhalis A894. As to the kind of experiment: Minimal inhibitory concentration (MIC), microdilution method in cation-adjusted Mueller-Hinton Broth (CLSI M7-A7). The class given is cell-based. Particulars: Moraxella catarrhalis, strain A894. The protocol: Minimal inhibitory concentrations (MICs; mg/1) were determined in cation-adjusted Mueller-Hinton Broth by a microdilution method following the description given in “Methods for Dilution Antimicrobial Susceptibility Tests for Bacteria that Grow Aerobically”, Approved standard, 7th ed., Clinical and Laboratory Standards Institute (CLSI) Document M7-A7, Wayne, Pa., USA, 2006.
One may read the MIC as the smallest concentration in the dilution series that meets the test's criterion for growth inhibition. A lower MIC goes with inhibition by little substance. Regarding `O=C1CSc2ccc(N3C[C@@H](CCCN[C@H]4Cn5c(=O)cnc6ccc(F)c4c65)OC3=O)cc2N1` [Example 105, (R)-7-fluoro-6-{3-[(R)-2-oxo-3-(3-oxo-3,4-dihydro-2H-benzo[1,4]thiazin-6-yl)-oxazolidin-5-yl]-propylamino}-5,6-dihydro-pyrrolo[1,2,3-de]quinoxalin-3-one], the MIC was ≤ 0.031 µg/mL.

With `O=C1CSc2ccc(N3C[C@@H](CCCN[C@H]4Cn5c(=O)ccc6cccc4c65)OC3=O)cc2N1` [Example 109, (R)-1-{3-[(R)-2-oxo-3-(3-oxo-3,4-dihydro-2H-benzo[1,4]thiazin-6-yl)-oxazolidin-5-yl]-propylamino}-1,2-dihydro-pyrrolo[3,2,1-ij]quinolin-4-one], the MIC is ≤ 0.031 µg/mL.

`COc1nc2ccc(F)c3c2n(c1=O)C[C@@H]3NCCC[C@@H]1CN(c2ccc3c(c2)NC(=O)CO3)C(=O)O1` [Example 111, (R)-7-fluoro-2-methoxy-6-{3-[(R)-2-oxo-3-(3-oxo-3,4-dihydro-2H-benzo[1,4]oxazin-6-yl)-oxazolidin-5-yl]-propylamino}-5,6-dihydro-pyrrolo[1,2,3-de]quinoxalin-3-one] registered a minimum inhibitory concentration (MIC) of 0.125 µg/mL (≈ 0.245 µM).

On to `COc1nc2ccc(F)c3c2n(c1=O)C[C@@H]3NCCC[C@@H]1CN(c2ccc3c(c2)NC(=O)CS3)C(=O)O1` [Example 112, (R)-7-fluoro-2-methoxy-6-{3-[(R)-2-oxo-3-(3-oxo-3,4-dihydro-2H-benzo[1,4]thiazin-6-yl)-oxazolidin-5-yl]-propylamino}-5,6-dihydro-pyrrolo[1,2,3-de]quinoxalin-3-one], for which the MIC is ≤ 0.031 µg/mL.

On to `O=C1CSc2ccc(N3C[C@@H](CCCN[C@@H]4CN5C(=O)CNc6cccc4c65)OC3=O)cc2N1` [Example 114, (S)-6-{3-[(R)-2-oxo-3-(3-oxo-3,4-dihydro-2H-benzo[1,4]thiazin-6-yl)-oxazolidin-5-yl]-propylamino}-1,2,5,6-tetrahydro-pyrrolo[1,2,3-de]quinoxalin-3-one], for which the MIC is ≤ 0.031 µg/mL.

Take `CCOC(=O)c1ccc2c3c1ccc(=O)n3C[C@@H]2NCCC[C@H]1CN(c2ccc3c(c2)NC(=O)CS3)C(=O)O1` [Example 119, (R)-4-oxo-1-{3-[(S)-2-oxo-3-(3-oxo-3,4-dihydro-2H-benzo[1,4]thiazin-6-yl)-oxazolidin-5-yl]-propylamino}-1,2-dihydro-4H-pyrrolo[3,2,1-ij]quinoline-7-carboxylic acid ethyl ester]: the MIC was ≤ 0.031 µg/mL.

The molecule `O=C1CSc2ccc(N3C[C@H](CCCN[C@H]4Cn5c(=O)ccc6c(CO)ccc4c65)OC3=O)cc2N1` [Example 120, (R)-7-hydroxymethyl-1-{3-[(S)-2-oxo-3-(3-oxo-3,4-dihydro-2H-benzo[1,4]thiazin-6-yl)-oxazolidin-5-yl]-propylamino}-1,2-dihydro-pyrrolo[3,2,1-ij]quinolin-4-one] registered an MIC of 0.125 µg/mL (≈ 0.247 µM).

The molecule `Cl.O=C1CSc2ccc(N3C[C@H](CCCN[C@H]4Cn5c(=O)ccc6c(C(=O)O)ccc4c65)OC3=O)cc2N1` [Example 121, (R)-4-oxo-1-{3-[(S)-2-oxo-3-(3-oxo-3,4-dihydro-2H-benzo[1,4]thiazin-6-yl)-oxazolidin-5-yl]-propylamino}-1,2-dihydro-4H-pyrrolo[3,2,1-ij]quinoline-7-carboxylic acid hydrochloride] had an MIC of 0.125 µg/mL.

Turning to `CN(C)Cc1ccc2c3c1ccc(=O)n3C[C@@H]2NCCC[C@H]1CN(c2ccc3c(c2)NC(=O)CS3)C(=O)O1` [Example 122, (R)-7-dimethylaminomethyl-1-{3-[(S)-2-oxo-3-(3-oxo-3,4-dihydro-2H-benzo[1,4]thiazin-6-yl)-oxazolidin-5-yl]-propylamino}-1,2-dihydro-pyrrolo[3,2,1-ij]quinolin-4-one], 0.5 µg/mL (≈ 0.937 µM) was the least that counted as inhibitory (MIC).

`O=C1CSc2ccc(N3C[C@H](CCCN[C@H]4Cn5c(=O)ccc6c(CN7CCCC7)ccc4c65)OC3=O)cc2N1` [Example 123, (R)-1-{3-[(S)-2-oxo-3-(3-oxo-3,4-dihydro-2H-benzo[1,4]thiazin-6-yl)-oxazolidin-5-yl]-propylamino}-7-pyrrolidin-1-ylmethyl-1,2-dihydro-pyrrolo[3,2,1-ij]quinolin-4-one]: the MIC turned out to be 0.125 µg/mL (≈ 0.223 µM).

`O=C1CSc2ccc(N3C[C@@H](CCCN[C@H]4Cn5c(=O)ccc6ccc(F)c4c65)OC3=O)cc2N1` [Example 127, (R)-9-fluoro-1-{3-[(R)-2-oxo-3-(3-oxo-3,4-dihydro-2H-benzo[1,4]thiazin-6-yl)-oxazolidin-5-yl]-propylamino}-1,2-dihydro-pyrrolo[3,2,1-ij]quinolin-4-one]: the MIC was ≤ 0.031 µg/mL.

Take `O=C1CSc2ccc(N3C[C@@H](CCCN[C@@H]4Cn5c(=O)ccc6ccc(F)c4c65)OC3=O)cc2N1` [Example 128, (S)-9-fluoro-1-{3-[(R)-2-oxo-3-(3-oxo-3,4-dihydro-2H-benzo[1,4]thiazin-6-yl)-oxazolidin-5-yl]-propylamino}-1,2-dihydro-pyrrolo[3,2,1-ij]quinolin-4-one]: the MIC is ≤ 0.031 µg/mL.

On to `O=C1CSc2ccc(N3C[C@H](CCCN[C@H]4Cn5c(=O)ccc6ccc(F)c4c65)OC3=O)cc2N1` [Example 129, (R)-9-fluoro-1-{3-[(S)-2-oxo-3-(3-oxo-3,4-dihydro-2H-benzo[1,4]thiazin-6-yl)-oxazolidin-5-yl]-propylamino}-1,2-dihydro-pyrrolo[3,2,1-ij]quinolin-4-one], for which the minimal inhibitory concentration (MIC) was ≤ 0.031 µg/mL.

For the molecule `O=C1CSc2ccc(N3C[C@H](CCCN[C@@H]4Cn5c(=O)ccc6ccc(F)c4c65)OC3=O)cc2N1` [Example 130, (S)-9-fluoro-1-{3-[(S)-2-oxo-3-(3-oxo-3,4-dihydro-2H-benzo[1,4]thiazin-6-yl)-oxazolidin-5-yl]-propylamino}-1,2-dihydro-pyrrolo[3,2,1-ij]quinolin-4-one], the MIC was ≤ 0.031 µg/mL.

In the case of `O=C1COc2ccc(N3C[C@H](CCCN[C@H]4Cn5c(=O)cnc6ccc(F)c4c65)OC3=O)nc2N1` [Example 131, (R)-7-fluoro-6-{3-[(S)-2-oxo-3-(3-oxo-3,4-dihydro-2H-pyrido[3,2-b][1,4]oxazin-6-yl)-oxazolidin-5-yl]-propylamino}-5,6-dihydro-pyrrolo[1,2,3-de]quinoxalin-3-one], the MIC is ≤ 0.031 µg/mL.

For `O=C1CSc2ccc(N3C[C@@H](CCCN[C@H]4Cn5c(=O)cnc6ccc(F)c4c65)OC3=O)nc2N1` [Example 132, (R)-7-fluoro-6-{3-[(R)-2-oxo-3-(3-oxo-3,4-dihydro-2H-pyrido[3,2-b][1,4]thiazin-6-yl)-oxazolidin-5-yl]-propylamino}-5,6-dihydro-pyrrolo[1,2,3-de]quinoxalin-3-one], the MIC is ≤ 0.031 µg/mL.

Consider `O=C1CSc2ccc(N3C[C@H](CCCN[C@H]4Cn5c(=O)ccc6cccc4c65)OC3=O)cc2N1` [Example 133, (R)-1-{3-[(S)-2-oxo-3-(3-oxo-3,4-dihydro-2H-benzo[1,4]thiazin-6-yl)-oxazolidin-5-yl]-propylamino}-1,2-dihydro-pyrrolo[3,2,1-ij]quinolin-4-one], for which the minimal inhibitory concentration (MIC) is ≤ 0.031 µg/mL.

`O=C1COc2ccc(N3C[C@H](CCCN[C@H]4Cn5c(=O)ccc6cccc4c65)OC3=O)cc2N1` [Example 134, (R)-1-{3-[(S)-2-oxo-3-(3-oxo-3,4-dihydro-2H-benzo[1,4]oxazin-6-yl)-oxazolidin-5-yl]-propylamino}-1,2-dihydro-pyrrolo[3,2,1-ij]quinolin-4-one]: the MIC was ≤ 0.031 µg/mL.

In the case of `O=C1COc2ccc(N3C[C@H](CCCN[C@H]4Cn5c(=O)ccc6cccc4c65)OC3=O)nc2N1` [Example 135, (R)-1-{3-[(S)-2-oxo-3-(3-oxo-3,4-dihydro-2H-pyrido[3,2-b][1,4]oxazin-6-yl)-oxazolidin-5-yl]-propylamino}-1,2-dihydro-pyrrolo[3,2,1-ij]quinolin-4-one], the MIC was ≤ 0.031 µg/mL.

As to `O=C1CSc2ccc(N3C[C@H](CCCN[C@@H]4Cn5c(=O)ccc6cccc4c65)OC3=O)nc2N1` [Example 136, (S)-1-{3-[(S)-2-oxo-3-(3-oxo-3,4-dihydro-2H-pyrido[3,2-b][1,4]thiazin-6-yl)-oxazolidin-5-yl]-propylamino}-1,2-dihydro-pyrrolo[3,2,1-ij]quinolin-4-one], the minimal inhibitory concentration (MIC) was ≤ 0.031 µg/mL.

For `O=C1CSc2ccc(N3C[C@@H](CCCN[C@@H]4Cn5c(=O)ccc6cccc4c65)OC3=O)nc2N1` [Example 137, (S)-1-{3-[(R)-2-oxo-3-(3-oxo-3,4-dihydro-2H-pyrido[3,2-b][1,4]thiazin-6-yl)-oxazolidin-5-yl]-propylamino}-1,2-dihydro-pyrrolo[3,2,1-ij]quinolin-4-one], the MIC is ≤ 0.031 µg/mL.

For `O=C1CSc2ccc(N3C[C@@H](CCCN[C@H]4Cn5c(=O)ccc6ncc(F)c4c65)OC3=O)cc2N1` [Example 138, (R)-3-fluoro-4-{3-[(R)-2-oxo-3-(3-oxo-3,4-dihydro-2H-benzo[1,4]thiazin-6-yl)-oxazolidin-5-yl]-propylamino}-4,5-dihydro-pyrrolo[3,2,1-de][1,5]naphthyridin-7-one], the MIC was ≤ 0.031 µg/mL.

As for `O=C1CSc2ccc(N3C[C@H](CCCN[C@H]4Cn5c(=O)ccc6ncc(F)c4c65)OC3=O)cc2N1` [Example 139, (R)-3-fluoro-4-{3-[(S)-2-oxo-3-(3-oxo-3,4-dihydro-2H-benzo[1,4]thiazin-6-yl)-oxazolidin-5-yl]-propylamino}-4,5-dihydro-pyrrolo[3,2,1-de][1,5]naphthyridin-7-one], the minimum inhibitory concentration (MIC) was ≤ 0.031 µg/mL.

`O=C1COc2ccc(N3C[C@@H](CCCN[C@H]4Cn5c(=O)ccc6ncc(F)c4c65)OC3=O)cc2N1` [Example 140, (R)-3-fluoro-4-{3-[(R)-2-oxo-3-(3-oxo-3,4-dihydro-2H-benzo[1,4]oxazin-6-yl)-oxazolidin-5-yl]-propylamino}-4,5-dihydro-pyrrolo[3,2,1-de][1,5]naphthyridin-7-one]: the MIC was ≤ 0.031 µg/mL.

`O=C1COc2ccc(N3C[C@H](CCCN[C@H]4Cn5c(=O)ccc6ncc(F)c4c65)OC3=O)cc2N1` [Example 141, (R)-3-fluoro-4-{3-[(S)-2-oxo-3-(3-oxo-3,4-dihydro-2H-benzo[1,4]oxazin-6-yl)-oxazolidin-5-yl]-propylamino}-4,5-dihydro-pyrrolo[3,2,1-de][1,5]naphthyridin-7-one]: the MIC was ≤ 0.031 µg/mL.

For the origin of these results see patent publication US9822114B2, “Tricyclic oxazolidinone antibiotic compounds” (Idorsia Pharmaceuticals Ltd, priority 2008, dated 2017).
